# The supplement of paper PMC10307832
# What was measured:
# Experiment in all cases: relative viability (nuclei count vs DMSO), 5 days (fraction); higher = more cells survive
# Veliparib + AZD7762 = compound: C[C@]1(c2nc3c(C(N)=O)cccc3[nH]2)CCCN1 [Veliparib] + NC(=O)Nc1cc(-c2cccc(F)c2)sc1C(=O)N[C@H]1CCCNC1 [AZD7762] (partner 0.2 µM)
# Procedure, shortened: (§1)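 Nuclei were stained with Hoechst during a one-step fixation (final 0.05% Triton X-100, 1% formaldehyde, 1 ug/ml Hoechst) carried out 5 days after dosing, then counted on 4× images. The cells, lung cancer lines in 1536-well plates, had been dosed by pin tool the day after seeding with one drug alone or a fixed anchor-drug dose plus five library-drug doses (not always all listed) in √10 steps. Relative viability is the nuclei count in treated wells divided by that in vehicle wells, and each value is the median of duplicate plates.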
# [1] = compound: COC1=CC=C(C=C1)CN2C=CC3=C2C=C(C=C3)C(=O)NO + C[C@@H](Oc1cc(-c2cnn(C3CCNCC3)c2)cnc1N)c1c(Cl)ccc(F)c1Cl [Crizotinib] (partner 1 µM)
# Procedure, shortened: as §1
# [2] = compound: COC1=CC=C(C=C1)CN2C=CC3=C2C=C(C=C3)C(=O)NO + CC(C)C[C@H](NC(=O)[C@H](Cc1ccccc1)NC(=O)c1cnccn1)B(O)O [Bortezomib] (partner 0.002 µM)
# Procedure, shortened: as §1
# Veliparib + Bortezomib = compound: C[C@]1(c2nc3c(C(N)=O)cccc3[nH]2)CCCN1 [Veliparib] + CC(C)C[C@H](NC(=O)[C@H](Cc1ccccc1)NC(=O)c1cnccn1)B(O)O [Bortezomib] (partner 0.002 µM)
# Procedure, shortened: as §1
Cell Line,relative viability (Veliparib + AZD7762; first compound 0.02 µM),relative viability (Veliparib + AZD7762; first compound 0.6325 µM),relative viability (Veliparib + AZD7762; first compound 2 µM),relative viability ([1]; first compound 0.253 µM),relative viability ([1]; first compound 0.8 µM),relative viability ([1]; first compound 2.53 µM),relative viability ([1]; first compound 8 µM),relative viability (Veliparib + AZD7762; first compound 0.06325 µM),relative viability (Veliparib + AZD7762; first compound 0.2 µM),relative viability ([2]; first compound 0.08 µM),relative viability ([2]; first compound 0.253 µM),relative viability ([2]; first compound 0.8 µM),relative viability ([2]; first compound 2.53 µM),relative viability ([2]; first compound 8 µM),relative viability ([1]; first compound 0.08 µM),relative viability (Veliparib + Bortezomib; first compound 0.02 µM),relative viability (Veliparib + Bortezomib; first compound 0.06325 µM),relative viability (Veliparib + Bortezomib; first compound 0.2 µM),relative viability (Veliparib + Bortezomib; first compound 0.6325 µM),relative viability (Veliparib + Bortezomib; first compound 2 µM)
NCI-H1648,0.762,0.711,0.685,–,–,–,–,–,–,–,–,–,–,–,–,–,–,–,–,–
NCI-H358,–,0.552,0.676,0.645,0.546,0.597,0.395,0.487,0.671,–,–,–,–,–,–,–,–,–,–,–
IA-LM,–,–,–,0.806,0.834,1.02,0.694,–,–,0.857,0.69,0.942,0.769,0.726,0.618,0.831,0.748,0.794,0.83,0.813
201T,0.656,0.639,0.689,0.999,1.06,1.08,0.969,0.778,0.645,1.09,1.1,1.1,1.14,1.06,1.02,1.09,1.07,1.06,1.18,1.08
LOU-NH91,0.768,0.723,0.821,0.738,0.752,0.763,0.704,0.705,0.75,0.387,0.472,0.466,0.476,0.504,0.693,0.486,0.387,0.511,0.464,0.476
ChaGo-K-1,0.73,0.83,0.824,1.24,1.06,1.09,0.926,0.854,0.83,–,0.752,0.962,0.942,0.868,–,–,0.863,1.09,1.05,0.804
NCI-H441,1.12,1.01,1.04,0.835,0.862,0.787,0.597,1.09,1.14,0.331,0.406,0.543,0.497,0.413,1.25,0.472,0.293,0.533,0.365,0.401
ABC-1,–,0.752,0.716,1.3,1.17,1.31,1.12,0.778,0.771,–,0.274,0.296,0.325,0.318,–,–,0.266,0.257,0.259,0.304
NCI-H661,–,–,–,0.814,1.08,1.05,1,–,–,–,0.811,0.649,0.843,0.715,–,0.635,0.877,0.767,0.731,0.777
BEN,0.599,0.793,0.625,0.814,0.894,0.869,0.851,0.644,0.664,0.675,0.671,0.906,0.754,0.656,0.756,0.676,0.739,0.827,0.87,0.78
UMC-11,–,–,–,0.704,0.564,0.554,0.56,–,–,0.665,0.668,0.809,0.67,0.634,0.269,0.592,0.727,0.668,0.685,0.667
NCI-H2023,–,–,–,0.586,0.728,0.652,0.59,–,–,0.728,1.05,0.944,1.03,0.878,0.625,0.505,0.913,0.937,0.965,0.924
NCI-H2126,0.957,1.07,0.834,1.08,1.04,1.03,1.06,0.975,1.03,1.06,1.09,1.15,1.12,1.05,1.02,1.03,1.07,1.18,1.14,1.06
EMC-BAC-2,1.15,1.09,1.17,0.828,0.746,0.708,0.687,1.02,1.12,0.972,1.13,1.18,1.07,0.944,0.224,1.11,1.03,1.07,1.05,1.09
NCI-H838,0.998,0.94,0.937,0.911,0.882,0.853,0.829,0.914,0.963,–,0.99,0.899,0.885,0.719,–,0.905,0.79,0.926,0.686,0.848
NCI-H322M,–,0.744,0.611,0.816,0.98,0.851,0.793,0.629,0.573,–,0.971,1.27,1.23,1.26,–,1.25,1.15,1.26,1.07,1.17
HCC-15,1.24,1.37,1.28,0.805,0.919,0.787,0.814,1.13,1.11,0.854,1.09,1.13,1.02,0.998,0.616,0.781,1.02,0.991,0.932,0.984
NCI-H1395,0.454,0.405,0.405,–,–,–,–,0.359,0.411,–,–,–,–,–,–,–,–,–,–,–
NCI-H596,1.34,1.13,0.952,0.961,0.963,0.868,1.01,1.22,1.17,1.04,–,0.943,1.07,1.02,1.05,1.14,1,1.06,1.11,0.902
PC-3 [JPC-3],0.82,0.898,0.773,1.02,1.02,1.05,0.965,–,0.875,0.808,0.814,0.833,0.817,0.854,0.969,0.821,0.789,0.85,0.815,0.785
